Test results taken from patent US20230159954A1, “Apparatus for Improved Transfection and / or intracellular delivery efficiency of an Agent into a Eukaryotic Cell and / or Protein Expression and Method of Use Thereof” (St Andrews Pharmaceutical Technology Ltd., priority 2020, published 2023).
“Also recorded” adds a separate entry of the source.

Tested on: Human Colon Tumour (HCT) 116 cells
Assay: Western Blot of p53 isoforms after doxorubicin treatment with or without pulsed technology
Format: cell-based
Conditions: for uptake / intra-cellular delivery of doxorubicin from the media: concluded from upregulation of p53 isoforms
Protocol: Human Colon Tumour (HCT) 116 cells (adherent cells) (ATCC, USA-ATCC® CCL-247™) were seeded at a density of 3×10^5 cells per well in two CELLSTAR® 6-well plates (9.6 cm^2) in a final volume of 5 mL Dulbecco's Modified Eagle Medium (DMEM) (Thermo Fisher, USA)+10% Fetal Bovine Serum (FBS) (Hyclone, USA) 24 hours before treatment.
The naked agent used was Doxorubicin (0.25 μM) (Sigma Aldrich) in absolute ethanol and was given to the cells for a 1 hour treatment period and incubated at 37° C., at 5% CO^2.
After treatment the media was removed and fresh media was added to the cells. One of the plates was incubated directly at 37° C., at 5% CO^2 and the second plate was placed in a different incubator and pulsed using the pulsed technology of the present invention at 37° C., at 5% CO^2.
Protein extracts were collected at 3 hours, 6 hours, 9 hours, 16 hours or 24 hours of treatment for analysis by SDS-page.
1. For protein extraction the cells were washed twice with ice-cold PBS and then lysed in NP-40 extraction buffer (50 mM Tris pH 7.5; 10% glycerol; 0.1% “NP-40 Alternative” (Merck Millpore, USA); 100 mM NaCl; 0.2 mM EDTA) supplemented with 1× Complete™ Protease Inhibitor Cocktail (Roche, Switzerland). Extracts were sonicated (20 seconds, 20% amplitude) and protein concentration was determined using BCA™ Protein Assay Kit (ThermoFisher Scientific, USA) according to the manufacturer's recommendations.
1. Protein extracts (15/20 μg depending on the experiment) were supplemented with 0.1M dithiothreitol (DTT) and 1×LDS buffer (Invitrogen, USA) and were heated at 95° C. for 10 min before loading on NuPAGE 10% Bis-Tris polyacrylamide gels (Invitrogen, USA).
2. Protein samples were separated by electrophoresis (100V) using 1×MOPS Running Buffer. Transfer of proteins was performed at 12V overnight onto a nitrocellulose membrane (Protran 0.1 μm from GE Healthcare, USA) in 1× Transfer Buffer supplemented with 20% methanol. 1× Transfer Buffer is prepared from 10× Wet blot solution containing 144 g of glycine and 30 g Tris-Base in a final volume of 1 L milli-Q water.
3. Membranes were blocked for 30 min in 5% BSA diluted in PBS-0.1% Tween20 before being incubated overnight with a primary antibody (Mouse monoclonal antibody DO1). After a wash of 15 min in PBS-Tween20, membranes were incubated for 1 h with a corresponding secondary antibody (HRP conjugated Donkey anti Mouse). All secondary antibodies, conjugated with Horse Radish Peroxidase (HRP), were purchased from Jackson ImmunoResearch lab and used at 1:10000/1:15000 dilution (depending on the antibody) in 5% BSA-PBS-Tween20.
At the end of the incubation membranes were washed twice with PBS-Tween20 for 15 min followed by a final 10 min wash with PBS. The chemiluminescence signal was detected on Hyperfilm™ ECL (Cytiva, USA) using the Amersham ECL Western Blotting Detection System (Cytiva, USA).

COc1cccc2c1C(=O)c1c(O)c3c(c(O)c1C2=O)C[C@@](O)(C(=O)CO)C[C@@H]3O[C@H]1C[C@H](N)[C@H](O)[C@H](C)O1 [Doxorubicin]
p53alpha expression (Western Blot, FIG. 8) (0.25 μM doxorubicin for 1 hour, pulsed technology vs control, after 16 hours): significant overproduction of p53alpha compared to the control
Other isoforms of p53 (d133p53alpha, d133p53beta, d160p53beta) expression (Western Blot, FIG. 7) (Doxorubicin 0.25 μM for 1 hour, pulsed technology vs control): more upregulated
p53alpha expression (Western Blot, FIG. 7) (Doxorubicin 0.25 μM for 1 hour, pulsed technology vs control, seen from 3 hours, most evident 24 hours post-treatment): upregulated
γH2AX expression (ionising radiation marker, Western Blot) (doxorubicin, pulsed technology arm vs control arm): no observed change; also recorded: remained unchanged
uptake / intra-cellular delivery of doxorubicin from the media (pulsed technology vs control): significantly improved
uptake / intra-cellular delivery of doxorubicin from the media (pulsed technology vs control, listed as doxorubicin): increases the ability of the cells to uptake doxorubicin
